This assay addresses T1, HMG-CoA synthase (Rattus norvegicus, UniProt P17425).
T1 construct: The livers from male Charles River CD rats (225-350 g) were homogenized in 0.25 M sucrose; from tissue; host or cells: rat liver (male Charles River CD rats), 100,000×g supernatant, ammonium sulfate precipitate, DEAE-52 fraction
T1 sequence (P17425 1-520): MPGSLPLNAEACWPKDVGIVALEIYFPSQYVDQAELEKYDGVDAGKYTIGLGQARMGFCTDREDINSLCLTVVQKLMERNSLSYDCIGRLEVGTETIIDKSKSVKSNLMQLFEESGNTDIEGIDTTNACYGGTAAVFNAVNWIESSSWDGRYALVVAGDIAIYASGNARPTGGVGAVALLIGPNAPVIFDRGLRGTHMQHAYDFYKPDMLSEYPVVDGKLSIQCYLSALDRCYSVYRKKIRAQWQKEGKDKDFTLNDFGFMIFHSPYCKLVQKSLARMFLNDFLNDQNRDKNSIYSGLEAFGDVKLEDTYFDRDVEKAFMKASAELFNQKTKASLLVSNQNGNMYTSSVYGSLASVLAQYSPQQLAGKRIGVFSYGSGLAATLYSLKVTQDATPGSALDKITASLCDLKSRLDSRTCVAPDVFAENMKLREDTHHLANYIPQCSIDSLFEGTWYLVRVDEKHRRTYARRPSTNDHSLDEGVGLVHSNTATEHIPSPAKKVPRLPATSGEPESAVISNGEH
Nature of the assay: HMG-CoA Synthase Inhibition Assay. The note with it: for IC50: in vitro, enzyme from rat liver. The class given is biochemical. As to the method: The intrinsic HMG-CoA synthase inhibition activity of the compounds of this invention is measured by the standard in vitro protocol described below:
The livers from male Charles River CD rats (225-350 g) were homogenized in 0.25 M sucrose which was adjusted with phenylmethylsulfonylfluoride (PMSF) and N-p-tosyl-1-lysine chloromethyl ketone (TLCK) so that the final concentration of each was […], respectively. The homogenate was centrifuged at 15,000×g for 20 minutes, the supernatant filtered through a fine nylon screen to remove most of the fat layer and recentrifuged at 100,000×g for 1 hour. This supernatant was removed and 1 M potassium phosphate, dithiothreitol (DTT) and ethylene glycol-bis(β-aminoethyl ether)-N,N,N',N'-tetraacetic acid (EGTA) added to give a final concentration of 0.1 M (pH 7.2), 0.5 mM and 0.1 mM, respectively. Solid ammonium sulfate was added to 50% saturation to the protein solution, it was centrifuged at 15,000×g and the supernatant discarded. This precipitated protein could be stored at -70° C. for at least one month with very little loss of activity. The ammonium sulfate precipitate was dissolved in an minimal amount of 0.06 M potassium phosphate buffer (pH 7.2) containing 0.5 mM dithiothreitol and 0.1 mM EGTA (referred to as 0.06 M phosphate buffer) and dialyzed overnight against 2 liters of the same buffer to remove the ammonium sulfate and to inactivate HMG-CoA lyase [Clinkenbeard, et al., J. Biol. Chem. 250, 3108-3116(1975)].
The dialyzed extract was added to a column of DEAE-52 (Whatman) which had been equilibrated with 0.06 M phosphate buffer (10 mg of protein to 1 ml bed volume of the resin). The DEAE-cellulose was eluted with 0.06 M phosphate buffer until the optical density at 280 nm was essentially zero. This fraction contained the β-ketoacetyl-CoA thiolase activity. The HMG-CoA synthase was eluted from the column with 0.1 M phosphate buffer (pH 7.2) containing 0.5 mM DTT and 0.1 mM EGTA, and was virtually free of all thiolase activity. The protein was precipitated by the addition of ammonium sulfate to give 50% saturation. This solution was stirred for 10 minutes at 4° C. and the precipitate collected by centrifugation at 15,000 rpm for 10 minutes. The supernatant was discarded and the precipitate dissolved in a minimum of 0.06 M phosphate buffer, pH 7.2 (about 10 ml) and the enzyme stored at -80° C.
HMG-CoA Synthase Inhibition Assay
Enzyme protein (ca. […]) was added to a solution containing 117 mM Tris-HCl (pH 8.0), 11.7 mM MgCl2, 1.17 mM ethylenediaminetetraacetic acid (EDTA), 0.58 mM dithiothreitol, and the indicated concentrations of the test compound (added as a 2 mg/ml solution in dimethylsulfoxide). The incubation took place in a volume of 0.085 ml at 30° in a shaking water bath. After 5 minutes, […] of a solution containing acetoacetyl-CoA and 0.1 μCi of 1-[^14 C]-acetyl-CoA was added to give a final concentrations of 0.1 and 0.4 μM, respectively. The incubation was continued for 10 more minutes and the reaction stopped by the addition of […] of the assay mixture to 0.2 ml of 6N HCl in a glass scintillation vial. The vial was heated for 1 hour at 120° after which time 0.2 ml more of 6N HCl was again added to each vial and the heating continued for another hour. Following this, 1.0 ml of 0.9% saline was added to each vial and finally 10 ml of scintillation liquid. Radioactivity was determined in a Packard Tri-Carb liquid scintillation counter. Percent inhibition is calculated by the formula: [formula] IC50 values were determined by plotting the log of the concentration of the test compound verses the percentage inhibition and fitting a straight line to the resulting data by using the least squares method.

Each structure is given as a SMILES string.

For the compound `CC(=C\C(=O)O)/C=C(\C)CC(C)CCCCC1OC(=O)C1CCl` (stereo not shown) [R^1=OH, R^2=Cl, 11-(3-Chloromethyl-4-oxo-2-oxetano)-3,5,7-trimethyl-2,4-undecadienoic acid], the IC50 (commonly the concentration that inhibits the measured activity by half) amounted to 0.3 µM.
Consider `COC(=O)/C=C(C)/C=C(\C)CC(C)CCCCC1OC(=O)C1C` (stereo not shown) [R^1=OCH3, R^2=H, methyl 11-(3-methyl-4-oxo-2-oxetano)-3,5,7-trimethyl-2,4-undecadienoate], for which, where the note is “at 6 × 10^-6 M, read-out: percent inhibition”, the inhibition (commonly how much of the control response was suppressed) at 6 µM worked out at 22.7%. Moreover, under “concentration giving 22.7 percent inhibition, read-out: IC25 (printed in the IC50 column, in parentheses)”, the 25% effect concentration (IC25) (usually the concentration needed for an effect of 25%) was 6 µM.
As for `CC(=C\C(=O)O)/C=C(\C)CC(C)CCCCC1OC(=O)C1C` (stereo not shown) [R^1=OH, R^2=H, 11-(3-methyl-4-oxo-2-oxetano)-3,5,7-trimethyl-2,4-undecadienoic acid], the IC50 turned out to be 0.1 µM.
Same read-out and setting: the result for `COC(=O)/C=C(C)/C=C(\C)CC(C)CCCCC1OC(=O)C1CN=[N+]=[N-]` (stereo not shown) [R^1=OCH3, R^2=N3, methyl 11-(3-azidomethyl-4-oxo-2-oxetano)-3,5,7-trimethyl-2,4-undecadienoate] reads 0.1 µM; that for `CC(=C\C(=O)O)/C=C(\C)CC(C)CCCCC1OC(=O)C1CBr` (stereo not shown) [R^1=OH, R^2=Br, 11-(3-bromomethyl-4-oxo-2-oxetano)-3,5,7-trimethyl-2,4-undecadienoic acid], 1.4 µM; that for `CC(=C\C(=O)O)/C=C(\C)CC(C)CCCCC1OC(=O)C1CF` (stereo not shown) [R^1=OH, R^2=F, 11-(3-fluoromethyl-4-oxo-2-oxetano)-3,5,7,-trimethyl-2,4-undecadienoic acid], 0.28 µM.
For `COC(=O)/C=C(C)/C=C(\C)CC(C)CCCCC1OC(=O)C1CSC(C)=O` (stereo not shown) [R^1=OCH3, R^2=drawing 3, methyl 11-(3-acetylthiomethyl-4-oxo-2-oxetano)-3,5,7-trimethyl-2,4-undecadienoate], the IC50 turned out to be 10 µM. Where the note is “at 10^-5 M, read-out: percent inhibition”, the inhibition at 10 µM was determined as 47.9%.
With `COC(=O)/C=C(C)/C=C(\C)CC(C)CCCCC1OC(=O)C1CC#N` (stereo not shown) [R^1=OCH3, R^2=CN, methyl 11-(3-cyanomethyl-4-oxo-2-oxetano)-3,5,7-trimethyl-2,4-undecadienoate], half-maximal inhibition (IC50) was put at 2.9 µM.

The record behind these values is US4816477A, “Antihypercholesterolemic β-lactones” (Merck & Co., Inc., priority 1987, dated 1989).
